According to ChEMBL document CHEMBL1127902, “Synthesis of -estradiol-3-benzoate-17-(succinyl-12A-tetracycline): A potential bone-seeking estrogen” (Bioorg Med Chem Lett, 1994):

Assay: Percent of compound bound to bone mineral hydroxylapatite was determined […]
Settings: Bone element

SMILES | Binding
CN(C)[C@@H]1C(O)=C(C(N)=O)C(=O)[C@@]2(O)C(O)=C3C(=O)c4c(O)cccc4[C@@](C)(O)[C@H]3C[C@@H]12 | > 99%
C[C@]12CC[C@@H]3c4ccc(O)cc4CC[C@H]3[C@@H]1CC[C@@H]2O | < 1%
CN(C)[C@@H]1C(=O)C(C(N)=O)=C(O)[C@@]2(OC(=O)CCC(=O)O[C@H]3CC[C@H]4[C@@H]5CCc6cc(OC(=O)c7ccccc7)ccc6[C@H]5CC[C@]34C)C(O)=C3C(=O)c4c(O)cccc4[C@@](C)(O)C3CC12 (some centres undefined) | > 99%
C[C@]12CC[C@@H]3c4ccc(OC(=O)c5ccccc5)cc4CC[C@H]3[C@@H]1CC[C@@H]2O | < 1%
